Like-named read-outs stand apart in the source and are kept apart here.

The subject of test [1] is HDAC. In words: HDAC fluorometric assay, single-point percent inhibition (medium fidelity). Format: biochemical. Conditions: for IC50: first iteration, assuming binding follows the Hill equation and is noncooperative, assay run at 20 μM scale, read-out: IC50 corresponding to single point inhibition. An excerpt:
In the first iteration, the experimental design algorithm recommended that 3,385 candidates be docked (39% of budget), 261 candidates screened for single-point percent inhibition (61% of budget), and no candidates be manually synthesized for full dose–response characterization (0% of budget). The total budget was 100.0 with the same experiment cost structure of 0.01 for docking, 0.2 for single-point, and 1.0 for dose response curve. Docking was automatically performed with DiffDock, and the resulting conformers scored based on their binding to the catalytic zinc ion and overlap with bound known inhibitors from X-ray crystallography. For the candidates selected for automatic synthesis, the reactions were batched by temperature into well plates to be run in parallel on the automated platform. With a maximum allowance of 6 well plates, the platform attempted to synthesize 79 candidates, with an average of 2.4 reaction steps required for each candidate. Based on observation of the expected mass-to-charge ratio (m/z) during automatic HPLC-MS analysis, 40 of the syntheses were successful. The successful syntheses were automatically purified with semipreparative HPLC, the concentration of the inhibitor was automatically estimated,[47] and the fluorometric inhibition assay was automatically run at 20 μM scale. The structures, synthesis plans, assay scores, and statistics for the attempted molecules are in the SI.

For test [2], the system named is HDAC. The note with it: cited from earlier work.
Test [3] has as its system HDAC. In words: HDAC fluorometric assay, dose-response curve (high fidelity). Conditions: read-out: IC50 (Dose-Response Curve), manually synthesized molecules.
Method: HDAC inhibition is automatically measured in a plate reader with a fluorometric assay (Abcam ab283378). In the plate-based assay, the liquid handler first dispenses individual purified products in dimethyl sulfoxide into each well, then adds buffer containing HDAC and a peptide substrate containing an acetylated lysine residue. The solution is agitated and incubated for 30 min at 37 °C, then a developer, which reacts with primary amines to form a fluorescent product, is dispensed and incubated for another 30 min. After the second incubation, the plate is transferred to the plate reader to measure fluorescence corresponding to uninhibited HDAC activity. The platform handles all aspects of the assay; dispensing reagents, timing incubation, transferring plates, preparing positive and negative controls, and analyzing fluorescent readouts without human input.

For `O=[N+]([O-])c1ccc(N(S(=O)(=O)c2cccc3cccnc23)S(=O)(=O)C(F)(F)F)cc1` [c], in the test on HDAC [1], the IC50 (commonly the concentration at which inhibition is half-maximal) worked out at 7.25 µM.
Still for that read-out and setting: with `CC(C)(C)N(S(C)(=O)=O)S(=O)(=O)c1cccc(Br)c1` [a] the figure was 1.14 µM.
Regarding `CCN(CC)Cc1ccc2cc(COC(=O)Nc3ccc(C(=O)NO)cc3)ccc2c1` [givinostat], the IC50 in the test on HDAC [2] (FDA approved hydroxamate) was 0.837 µM.
Take `CC(/C=C/C(=O)NO)=C\[C@@H](C)C(=O)c1ccc(N(C)C)cc1` [trichostatin A]: the 50% inhibitory concentration (IC50) in the test on HDAC [3] was 0.0018 µM.
Turning to `Cc1ccc(S(=O)(=O)N(c2ccc([N+](=O)[O-])cc2)C2CCC2)cc1` [b], the IC50 in the test on HDAC [1] is 3.31 µM.
Take `CCCC(CCC)C(=O)O` [valproate]: the IC50 in the test on HDAC [2] (FDA approved nonhydroxamate inhibitor) is 180 µM.
In the case of `O=C1CCc2cc(Nn3cnnc3)ccc21` [5-((1,2,4-triazol-4-yl)amino)-indan-1-one], in the test with HDAC [1] (second iteration, automated synthesis and assay), the “inhibition in the single-point assay” value worked out at 11%.

The values are drawn from article PMC11869128, “Bayesian Optimization over Multiple Experimental Fidelities Accelerates Automated Discovery of Drug Molecules” (ACS Central Science, 2025).
